Measurements reported in patent publication USRE50528E1, “Compounds and compositions for modulating EGFR mutant kinase activities” (Yuhan Corporation, priority 2014, dated 2025).

Tests used:
[1] = target: T1, EGFR mutant Del19 (E746-A750) (Homo sapiens, UniProt P00533, DEL746-750); assay: Kinase inhibition assay, EGFR del E746-A750; assay type: biochemical; settings: read-out: EGFR mutants Del19 (E746-A750);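 also: truncated human EGFR mutant kinase, two-hour preincubation with compound, then one-hour reaction with ATP and ULight-PolyGT peptide, LANCE Europium-antibody phosphorylation readout, IC50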
T1 construct: truncated human JAK3, EGFR mutants such as del E746-A750; purchased Carna Biosciences

EGFR mutant Del19/T790M = target: T2, EGFR mutant Del19/T790M (Homo sapiens, UniProt P00533, DEL746-750/T790M); assay: Kinase inhibition assay, EGFR del E746-A750/T790M; assay type: biochemical; settings: read-out: EGFR mutants Del19/T790M
T2 construct: truncated human JAK3, EGFR mutants such as del E746-A750; purchased Carna Biosciences

KDR = target: T3, KDR (Homo sapiens, UniProt P35968); assay: Kinase inhibition assay, KDR; assay type: biochemical; settings: biochemical potency;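 also: purified full-length human KDR, 30 min preincubation with compound, then 1 h reaction with ATP and Ulight-Jak1 peptide substrate, phosphorylation read by Lance Europium antibody detection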
T3 construct: Purified human, full-length SYK, KDR; purchased Carna Biosciences

EGFR mutant L858R = target: T4, EGFR mutant L858R (Homo sapiens, UniProt P00533, L858R); assay: Kinase inhibition assay, EGFR L858R; assay type: biochemical; settings: read-out: EGFR mutants L858R;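 also: truncated human EGFR L858R kinase with compound preincubation, ULight-PolyGT peptide phosphorylation read by Europium-antibody Lance detection, IC50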
T4 construct: truncated human JAK3, EGFR mutants such as del E746-A750; purchased Carna Biosciences

SYK = target: T5, SYK (Homo sapiens, UniProt P43405); assay: Kinase inhibition assay, SYK; assay type: biochemical; settings: biochemical potency;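 also: purified full-length human SYK pre-incubated 30 min with compound, then ULight-TK peptide phosphorylation for 1 h, detected with Europium-labeled antibody in Lance buffer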
T5 construct: Purified human, full-length SYK, KDR; purchased Carna Biosciences

JAK3 = target: T6, JAK3 (Homo sapiens, UniProt P52333); assay: Kinase inhibition assay, JAK3; settings: biochemical potency;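 also: IC50 against purified truncated human JAK3 preincubated with compound, then reacted with ATP and ULight-Jak1 peptide, phosphorylation read by Europium-labeled antibody LANCE detection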
T6 construct: EGFR and JAK3 (JH1domain-catalytic) kinases, and mutant forms thereof; purchased Carna Biosciences

EGFR mutant T790M = target: T7, EGFR mutant T790M (Homo sapiens, UniProt P00533, T790M); assay: Kinase inhibition assay, EGFR mutant T790M; settings: biochemical potency;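 also: truncated human EGFR mutant enzyme preincubated two hours with compound, then ATP plus ULight-PolyGT peptide for one hour, Europium-labeled antibody LANCE detection, IC50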
T7 construct: truncated human JAK3, EGFR mutants such as del E746-A750; purchased Carna Biosciences

EGFR mutant L858R/T790M = target: T8, EGFR mutant L858R/T790M (Homo sapiens, UniProt P00533, L858R/T790M); assay: Kinase inhibition assay, EGFR L858R/T790M; assay type: biochemical; settings: read-out: EGFR mutants L858R/T790M;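 also: truncated human enzyme preincubated two hours with compound, then one hour with one millimolar ATP and ULight-PolyGT peptide, Europium-labeled antibody detection, IC50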
T8 construct: truncated human JAK3, EGFR mutants such as del E746-A750; purchased Carna Biosciences

H2073 (EGFR wildtype) = assay: Cell viability assay, H2073; assay type: cell-based; settings: NCI-H2073; cellular potency; 72-hour incubation; ATPLite;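 also: NSCLC cell line whose survival relies on wildtype EGFR, treated with serially diluted compound, cytotoxic effect judged from remaining cell viability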
[2] = test system: H1975 (EGFR L858R/T790M mutant); assay: Cell viability assay, H1975; assay type: cell-based; settings: for IC50: Homo sapiens, NCI-H1975, cellular potency, 72-hour incubation, ATPLite, read-out: EGFR Mutants H1975; for Selectivity over wildtype, Wildtype vs mutant H2073/H1975 (fold): cellular potency ratio;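 as to all read-outs here: NSCLC cells whose survival relies on EGFR L858R/T790M, exposed 72 h to serially diluted compound, ATP-based viability readout, with the H2073 line (wildtype EGFR dependent) as wildtype comparator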
[3] = test system: PC9 (EGFR del E746-A750 mutant); assay: Cell viability assay, PC9; assay type: cell-based; settings: for Selectivity over wildtype, Wildtype vs mutant H2073/PC9 (fold): cellular potency ratio; for IC50: cellular potency, 72-hour incubation, ATPLite, read-out: EGFR Mutants PC9;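 as to all read-outs here: NSCLC PC9 cells, whose viability relies on EGFR del E746-A750, exposed to serially diluted compound for 72 h at 37 °C, ATPLite read-out, IC50, H2073 as EGFR wildtype line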

T1 sequence (P00533 with tags, fused parts or gaps DEL746-750 limits assumed): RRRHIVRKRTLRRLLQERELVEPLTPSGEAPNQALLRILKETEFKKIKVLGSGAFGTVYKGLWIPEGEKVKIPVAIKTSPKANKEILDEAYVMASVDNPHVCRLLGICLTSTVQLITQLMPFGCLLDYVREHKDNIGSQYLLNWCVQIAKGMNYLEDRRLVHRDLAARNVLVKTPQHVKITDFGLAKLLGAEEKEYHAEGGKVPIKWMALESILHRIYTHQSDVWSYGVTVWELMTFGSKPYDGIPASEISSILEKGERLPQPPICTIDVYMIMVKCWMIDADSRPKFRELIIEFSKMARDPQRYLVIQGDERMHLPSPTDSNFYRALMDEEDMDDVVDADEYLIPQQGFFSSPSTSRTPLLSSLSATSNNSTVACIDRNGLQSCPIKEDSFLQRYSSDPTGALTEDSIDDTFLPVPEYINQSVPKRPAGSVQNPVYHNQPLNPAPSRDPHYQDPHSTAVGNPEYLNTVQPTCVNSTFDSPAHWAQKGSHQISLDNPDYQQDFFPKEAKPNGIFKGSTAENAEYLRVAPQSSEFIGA
T3 sequence (P35968 20-1356): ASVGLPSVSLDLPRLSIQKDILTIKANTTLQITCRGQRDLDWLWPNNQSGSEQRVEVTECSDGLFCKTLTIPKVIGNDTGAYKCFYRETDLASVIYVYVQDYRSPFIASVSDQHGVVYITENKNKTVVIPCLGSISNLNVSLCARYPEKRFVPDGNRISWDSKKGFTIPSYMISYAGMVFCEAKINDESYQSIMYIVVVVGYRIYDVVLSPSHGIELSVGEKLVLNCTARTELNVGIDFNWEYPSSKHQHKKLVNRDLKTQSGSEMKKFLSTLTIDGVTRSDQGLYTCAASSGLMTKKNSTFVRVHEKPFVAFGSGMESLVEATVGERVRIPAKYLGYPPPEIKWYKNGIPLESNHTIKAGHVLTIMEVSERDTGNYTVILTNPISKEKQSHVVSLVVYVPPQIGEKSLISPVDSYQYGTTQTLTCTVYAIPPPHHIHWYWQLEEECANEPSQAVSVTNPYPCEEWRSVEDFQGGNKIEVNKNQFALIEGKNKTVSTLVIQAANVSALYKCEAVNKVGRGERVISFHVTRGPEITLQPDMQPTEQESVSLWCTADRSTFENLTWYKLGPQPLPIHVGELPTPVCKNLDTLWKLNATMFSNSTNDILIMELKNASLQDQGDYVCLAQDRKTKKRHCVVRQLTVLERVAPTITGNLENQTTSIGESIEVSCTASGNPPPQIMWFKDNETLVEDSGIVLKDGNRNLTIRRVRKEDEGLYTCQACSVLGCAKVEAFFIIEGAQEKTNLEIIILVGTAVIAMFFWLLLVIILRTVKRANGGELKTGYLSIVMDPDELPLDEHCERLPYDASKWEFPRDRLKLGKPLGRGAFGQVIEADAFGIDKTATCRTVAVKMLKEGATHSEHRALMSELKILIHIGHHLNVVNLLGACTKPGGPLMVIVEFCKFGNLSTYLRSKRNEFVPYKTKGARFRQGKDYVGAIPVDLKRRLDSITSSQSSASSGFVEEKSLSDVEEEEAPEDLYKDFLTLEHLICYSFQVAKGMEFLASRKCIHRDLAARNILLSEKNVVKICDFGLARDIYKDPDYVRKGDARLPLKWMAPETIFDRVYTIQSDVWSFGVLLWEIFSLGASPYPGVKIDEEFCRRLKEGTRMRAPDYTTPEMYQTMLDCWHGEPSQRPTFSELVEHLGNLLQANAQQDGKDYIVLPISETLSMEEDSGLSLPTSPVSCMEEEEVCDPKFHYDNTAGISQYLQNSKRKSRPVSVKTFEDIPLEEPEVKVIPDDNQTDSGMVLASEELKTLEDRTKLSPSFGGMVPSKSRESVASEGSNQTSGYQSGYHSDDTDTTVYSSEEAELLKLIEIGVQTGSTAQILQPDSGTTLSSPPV
T4 sequence (P00533 669-1210 L858R limits assumed): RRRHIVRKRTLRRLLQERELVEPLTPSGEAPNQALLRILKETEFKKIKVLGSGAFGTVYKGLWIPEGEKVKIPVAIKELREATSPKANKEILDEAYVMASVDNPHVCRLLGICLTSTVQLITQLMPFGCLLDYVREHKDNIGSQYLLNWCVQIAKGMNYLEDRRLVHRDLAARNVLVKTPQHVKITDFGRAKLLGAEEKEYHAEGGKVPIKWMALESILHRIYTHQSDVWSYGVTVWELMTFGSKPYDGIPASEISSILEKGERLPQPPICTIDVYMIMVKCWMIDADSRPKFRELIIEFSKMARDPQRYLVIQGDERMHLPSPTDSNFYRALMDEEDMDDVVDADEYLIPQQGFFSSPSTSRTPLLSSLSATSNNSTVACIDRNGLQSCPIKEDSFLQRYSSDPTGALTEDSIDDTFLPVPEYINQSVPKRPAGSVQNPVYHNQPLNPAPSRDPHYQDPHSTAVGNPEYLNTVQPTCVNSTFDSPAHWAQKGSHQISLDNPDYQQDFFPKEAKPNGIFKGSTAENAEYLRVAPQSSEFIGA
T2 sequence (P00533 with tags, fused parts or gaps DEL746-750/T790M limits assumed): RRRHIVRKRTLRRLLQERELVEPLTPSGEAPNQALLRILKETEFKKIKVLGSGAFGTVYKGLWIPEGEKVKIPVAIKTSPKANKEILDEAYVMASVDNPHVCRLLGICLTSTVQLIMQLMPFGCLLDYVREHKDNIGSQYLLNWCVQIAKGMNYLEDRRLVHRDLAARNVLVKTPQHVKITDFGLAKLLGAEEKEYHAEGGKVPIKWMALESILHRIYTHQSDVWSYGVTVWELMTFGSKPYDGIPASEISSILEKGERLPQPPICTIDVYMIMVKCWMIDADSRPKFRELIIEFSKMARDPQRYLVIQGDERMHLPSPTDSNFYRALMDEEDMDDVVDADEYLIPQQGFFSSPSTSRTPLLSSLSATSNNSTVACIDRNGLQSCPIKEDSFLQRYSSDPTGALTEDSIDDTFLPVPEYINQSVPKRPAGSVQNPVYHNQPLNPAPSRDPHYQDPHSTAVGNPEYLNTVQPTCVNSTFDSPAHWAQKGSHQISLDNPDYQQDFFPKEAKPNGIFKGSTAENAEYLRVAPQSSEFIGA
T8 sequence (P00533 669-1210 T790M/L858R limits assumed): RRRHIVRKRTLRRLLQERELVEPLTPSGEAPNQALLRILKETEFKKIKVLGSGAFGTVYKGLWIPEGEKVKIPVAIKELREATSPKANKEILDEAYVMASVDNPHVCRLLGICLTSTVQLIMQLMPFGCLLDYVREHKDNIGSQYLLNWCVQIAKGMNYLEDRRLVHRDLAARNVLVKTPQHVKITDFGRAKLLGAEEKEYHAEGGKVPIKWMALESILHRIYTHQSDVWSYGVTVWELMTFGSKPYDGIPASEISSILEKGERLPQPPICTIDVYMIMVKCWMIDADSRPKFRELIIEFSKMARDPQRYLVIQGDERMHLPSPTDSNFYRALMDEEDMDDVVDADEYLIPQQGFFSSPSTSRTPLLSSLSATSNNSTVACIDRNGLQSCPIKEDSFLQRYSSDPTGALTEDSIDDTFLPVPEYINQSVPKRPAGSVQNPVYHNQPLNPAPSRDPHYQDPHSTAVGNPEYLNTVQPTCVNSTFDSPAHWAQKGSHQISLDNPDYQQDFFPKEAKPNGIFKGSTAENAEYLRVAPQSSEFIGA
T6 sequence (P52333 822-1111 limits assumed): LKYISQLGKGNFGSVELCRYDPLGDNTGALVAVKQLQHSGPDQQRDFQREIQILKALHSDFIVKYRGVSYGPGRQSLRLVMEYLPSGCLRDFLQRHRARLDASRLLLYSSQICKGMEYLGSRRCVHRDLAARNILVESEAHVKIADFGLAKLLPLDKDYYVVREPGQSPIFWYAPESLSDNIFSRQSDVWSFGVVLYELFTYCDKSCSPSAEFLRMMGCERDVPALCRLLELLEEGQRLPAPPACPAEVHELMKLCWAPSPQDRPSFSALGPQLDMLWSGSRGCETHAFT
T7 sequence (P00533 669-1210 T790M limits assumed): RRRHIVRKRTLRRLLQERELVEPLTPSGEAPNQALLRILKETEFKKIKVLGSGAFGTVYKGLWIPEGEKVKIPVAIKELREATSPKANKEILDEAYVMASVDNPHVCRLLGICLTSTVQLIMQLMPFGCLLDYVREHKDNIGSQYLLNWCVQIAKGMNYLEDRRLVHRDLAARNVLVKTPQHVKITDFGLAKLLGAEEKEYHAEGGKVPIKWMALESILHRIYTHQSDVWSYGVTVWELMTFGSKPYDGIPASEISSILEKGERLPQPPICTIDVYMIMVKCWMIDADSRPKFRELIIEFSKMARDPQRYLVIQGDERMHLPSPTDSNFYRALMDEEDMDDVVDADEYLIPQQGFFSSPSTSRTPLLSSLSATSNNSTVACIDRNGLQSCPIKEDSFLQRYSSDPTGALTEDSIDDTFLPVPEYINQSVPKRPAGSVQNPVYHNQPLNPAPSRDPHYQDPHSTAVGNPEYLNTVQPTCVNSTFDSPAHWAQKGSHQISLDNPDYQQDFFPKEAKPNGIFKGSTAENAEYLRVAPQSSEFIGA

IC50 [1] [nM]	IC50 (EGFR mutant Del19/T790M) [nM]	IC50 (KDR) [nM]	IC50 (EGFR mutant L858R) [nM]	IC50 (SYK) [nM]	IC50 (JAK3) [nM]	IC50 (EGFR mutant T790M) [nM]	IC50 (EGFR mutant L858R/T790M) [nM]	IC50 (H2073 (EGFR wildtype)) [nM]	IC50 [2] [nM]	IC50 [3] [nM]	Structure (SMILES)	Selectivity over wildtype, Wildtype vs mutant H2073/H1975 (fold) [2]	Selectivity over wildtype, Wildtype vs mutant H2073/PC9 (fold) [3]
< 20	< 20	201 to 1000	< 20	201 to 1000	< 20	< 20	< 20	–	–	–	C=CC(=O)Nc1cc(Nc2nccc(-n3cc(CN4CCC4)c(C)n3)n2)c(OC)cc1N1CCN(C)CC1 [Compound 17, N-(5-(4-(4-(azetidin-1-ylmethyl)-3-methyl-1H-pyrazol-1-yl)pyrimidin-2-ylamino)-4-methoxy-2-(4-methylpiperazin-1-yl)phenyl)acrylamide]	–	–
< 20	< 20	201 to 1000	< 20	20 to 200	< 20	< 20	< 20	> 1000	20 to 200	< 20	C=CC(=O)Nc1cc(Nc2ncc(C)c(-n3cc(CN4CC(O)C4)cn3)n2)c(OC)cc1N1CCOCC1 [Compound 19, N-(5-(4-(4-((3-hydroxyazetidin-1-yl)methyl)-1H-pyrazol-1-yl)-5-methylpyrimidin-2-ylamino)-4-methoxy-2-morpholinophenyl)acrylamide]	20-100 fold	100-200 fold
< 20	< 20	> 1000	< 20	201 to 1000	< 20	< 20	< 20	> 1000	< 20	< 20	C=CC(=O)Nc1cc(Nc2ncc(C)c(-n3cc(CN4C[C@@H](O)[C@@H](O)C4)c(C)n3)n2)c(OC)cc1N1CCOCC1 [Compound 25, N-(5-(4-(4-(((3R,4S)-3,4-dihydroxypyrrolidin-1-yl)methyl)-3-methyl-1H-pyrazol-1-yl)-5-methylpyrimidin-2-ylamino)-4-methoxy-2-morpholinophenyl)acrylamide]	101-200 fold	>200 fold
< 20	< 20	> 1000	< 20	20 to 200	< 20	< 20	< 20	> 1000	20 to 200	20 to 200	C=CC(=O)Nc1cc(Nc2ncc(C)c(-n3cc(CN4CC(O)C4)c(C)n3)n2)c(OC)cc1N1CCN(C)CC1 [Compound 29, N-(5-(4-(4-((3-hydroxyazetidin-1-yl)methyl)-3-methyl-1H-pyrazol-1-yl)-5-methylpyrimidin-2-ylamino)-4-methoxy-2-(4-methylpiperazin-1-yl)phenyl)acrylamide]	<20 fold	<20 fold
< 20	< 20	> 1000	< 20	201 to 1000	< 20	< 20	< 20	> 1000	20 to 200	201 to 1000	C=CC(=O)Nc1cc(Nc2ncc(C)c(-n3cc(CN4CCC4)cn3)n2)c(OC)cc1N1CCOCC1 [Compound 32, N-(5-(4-(4-(azetidin-1-ylmethyl)-1H-pyrazol-1-yl)-5-methylpyrimidin-2-ylamino)-4-methoxy-2-morpholinophenyl)acrylamide]	20-100 fold	20-100 fold
< 20	< 20	> 1000	20 to 200	201 to 1000	20 to 200	< 20	< 20	–	–	–	C=CC(=O)Nc1cc(Nc2nccc(-n3cc(CN4CCC4)cn3)n2)c(OC)cc1N1CCOCC1 [Compound 34, N-(5-(4-(4-(azetidin-1-ylmethyl)-1H-pyrazol-1-yl)pyrimidin-2-ylamino)-4-methoxy-2-morpholinophenyl)acrylamide]	–	–
< 20	< 20	> 1000	< 20	> 1000	< 20	< 20	< 20	> 1000	20 to 200	20 to 200	C=CC(=O)Nc1cc(Nc2ncc(C)c(-n3cc(CN4CCC4)cn3)n2)c(OC)cc1N1CCN(C)CC1 [Compound 36, N-(5-(4-(4-(azetidin-1-ylmethyl)-1H-pyrazol-1-yl)-5-methylpyrimidin-2-ylamino)-4-methoxy-2-(4-methylpiperazin-1-yl)phenyl)acrylamide]	20-100 fold	20-100 fold
< 20	< 20	> 1000	20 to 200	> 1000	< 20	< 20	< 20	–	–	–	C=CC(=O)Nc1cc(Nc2ncc(C)c(-n3cc(CN4CCC4)cn3)n2)c(OC)cc1N1CCCOCC1 [Compound 40, N-(5-(4-(4-(azetidin-1-ylmethyl)-1H-pyrazol-1-yl)-5-methylpyrimidin-2-ylamino)-4-methoxy-2-(1,4-oxazepan-4-yl)phenyl)acrylamide]	–	–
< 20	< 20	> 1000	20 to 200	> 1000	< 20	< 20	< 20	> 1000	20 to 200	201 to 1000	C=CC(=O)Nc1cc(Nc2ncc(C)c(-n3cc(CN4CCC4)cn3)n2)c(OC)cc1N(C)CCN(C)C [Compound 42, N-(5-(4-(4-(azetidin-1-ylmethyl)-1H-pyrazol-1-yl)-5-methylpyrimidin-2-ylamino)-2-((2-(dimethylamino)ethyl)(methyl)amino)-4-methoxyphenyl)acrylamide]	>200 fold	20-100 fold
< 20	< 20	> 1000	< 20	201 to 1000	< 20	< 20	< 20	–	–	–	C=CC(=O)Nc1cc(Nc2nccc(-n3cc(CN(C)C)c(C)n3)n2)c(OC)cc1N1CCN(C)CC1 [Compound 47, N-(5-(4-(4-((dimethylamino)methyl)-3-methyl-1H-pyrazol-1-yl)pyrimidin-2-ylamino)-4-methoxy-2-(4-methylpiperazin-1-yl)phenyl)acrylamide]	–	–
< 20	< 20	> 1000	20 to 200	201 to 1000	< 20	< 20	< 20	> 1000	201 to 1000	201 to 1000	C=CC(=O)Nc1cc(Nc2ncc(C)c(-n3cc(C)c(CN4CC(O)C4)c3)n2)c(OC)cc1N1CCOCC1 [Compound 48, N-(5-(4-(3-((3-hydroxyazetidin-1-yl)methyl)-4-methyl-1H-pyrrol-1-yl)-5-methylpyrimidin-2-ylamino)-4-methoxy-2-morpholinophenyl)acrylamide]	<20 fold	<20 fold
< 20	< 20	> 1000	< 20	201 to 1000	< 20	< 20	< 20	–	–	–	C=CC(=O)Nc1cc(Nc2ncc(Cl)c(-n3cc(CN4CC(O)C4)c(C)n3)n2)c(OC)cc1N1CCOCC1 [Compound 49, N-(5-(5-chloro-4-(4-((3-hydroxyazetidin-1-yl)methyl)-3-methyl-1H-pyrazol-1-yl)pyrimidin-2-ylamino)-4-methoxy-2-morpholinophenyl)acrylamide]	–	–
< 20	< 20	> 1000	20 to 200	> 1000	< 20	< 20	< 20	> 1000	20 to 200	20 to 200	C=CC(=O)Nc1cc(Nc2ncc(Cl)c(-n3cc(CN4CCC4)c(C)n3)n2)c(OC)cc1N1CCOCC1 [Compound 50, N-(5-(4-(4-(azetidin-1-ylmethyl)-3-methyl-1H-pyrazol-1-yl)-5-chloropyrimidin-2-ylamino)-4-methoxy-2-morpholinophenyl)acrylamide]	>200 fold	101-200 fold
< 20	< 20	> 1000	20 to 200	> 1000	20 to 200	201 to 1000	< 20	–	–	–	C=CC(=O)Nc1cc(Nc2nccc(-n3cc(CN4CCC4)c(C)n3)n2)c(OC)cc1-c1ccccc1 [Compound 65, N-(4-(4-(4-(azetidin-1-ylmethyl)-3-methyl-1H-pyrazol-1-yl)pyrimidin-2-ylamino)-5-methoxybiphenyl-2-yl)acrylamide]	–	–
